In patent US20230295133A1, “PROCESS FOR PREPARING A COMPOUND USEFUL TO TREAT MYCOSES” (PULMOCIDE LIMITED, priority 2014, published 2023):
Converted amounts (≈) assume the structure as drawn.

How the values were obtained:
[1] = tested on: aspergillus fumigatus infection of BEAS2B cells; experiment: Aspergillus fumigatus infection of bronchial epithelial cells (GM in supernatant); type: cell-based; conditions: bronchial epithelial cells infected with Aspergillus fumigatus; read-out: MIC50 Infection of BEAS2B cells
Procedure: BEAS2B cells were seeded in 96-well plates (100 µL; 30,000 cells / well; Catalogue No 3596, Sigma Aldrich, Dorset, UK) in 10% FBS RPMI-1640 and were then incubated (37° C., 5% CO2) for one day before experimentation. Test compounds (0.5 µL DMSO solution) or vehicle (DMSO) were added to each well to give a final DMSO concentration of 0.5%. BEAS2B cells were incubated with test compounds for 1 hr (35° C., 5% CO2) before infection with aspergillus fumigatus (20 µL; Public Health England) conidia suspension (0.5×10^5 /ml in 10% FBS RPMI-1640). The plate was incubated for 24 hr (35° C., 5% CO2). Supernatant (50 µL) was collected and transferred to a PCR plate (Catalogue No L1402-9700, Starlab, Milton Keynes, UK), which was frozen (-20° C.) until use. After thawing, supernatant (5 µL) was diluted 1:20 by adding R7-PBS solution (95 µL; 1:4 R7 to PBS; Bio-Rad Laboratories, Redmond, WA, USA). GM levels in these samples (50 µL) were measured using Platelia GM-EIA kits (Bio-Rad Laboratories, Redmond, WA, USA). The percentage inhibition for each well was calculated and the IC50 value was calculated from the concentration-response curve generated for each test compound.

[2] = Cell viability: resazurin assay; type: cell-based, human; conditions: human, BEAS2B cells; n = 3-5
Procedure: BEAS2B cells were seeded in 384-well plates (100 µL; 3000 / well /; BD Falcon, Catalogue No 353962) in RPMI-LHC8 (RPMI-1640 and LHC8 media combined in equal proportions) one day before experimentation. For cell-free control wells, RPMI-LHC8 (100 µL) was added. Test compounds (0.5 µL of a DMSO solution) were added to give a final DMSO concentration of 0.5% using an Integra VIAFLO 96 (Integra, Zizers, Switzerland). BEAS2B cells were incubated with each test compound for 1 day (37° C. / 5% CO2 in RPMI-LHC8). After addition of resazurin stock solution (5 µL, 0.04%) the plates were incubated for a further 4 hr (37° C. / 5% CO2). The fluorescence of each well at 545 nm (excitation) and 590 nm (emission) was determined using a multi-scanner (Clariostar: BMG Labtech). The percentage loss of cell viability was calculated for each well relative to vehicle (0.5% DMSO) treatment. Where appropriate, a CC50 value was calculated from the concentration-response curve generated from the concentration-response curve for each test compound.

[3] = tested on: Aspergillus fumigatus NCPF7099; experiment: Broth microdilution assay (modified EUCAST); type: cell-based; conditions: Aspergillus fumigatus, NCPF7099, n = 3, read-out: MIC75 against Aspergillus fumigatus isolate NCPF7099
Procedure: (§1) This assay was conducted using a modified method published by EUCAST (Rodriguez-Tudela et al., 2008). Spores of aspergillus fumigatus (NCPF2010, NCPF7010 (Methionine 220 mutation), NCPF7099 (Glycine G54 mutation) from Public Health England, Wiltshire; TR34/L98H mutants from St Louis Hospital, Paris, France) were cultured in Sabouraud dextrose agar for 3 days. A stock spore suspension was prepared from a Sabouraud dextrose agar culture by washing with PBS-tween (10 mL; PBS containing 0.05% Tween-20, 100 U/mL Penicillin and 100 U/mL Streptomycin). The spore count was assessed using a Neubauer haemocytometer and then adjusted to 10^6 spores/mL with PBS. A working suspension of spores (2 × 10^5 spores/mL) was prepared in filter sterilised, BSA MOPS RPMI-1640 (50 mL; RPMI-1640 containing 2 mM L-glutamine, 0.5% BSA, 2% glucose, 0.165 M MOPS, buffered to pH 7 with NaOH). For the assay, BSA MOPS RPMI-1640 (50 µL/well) was added throughout the 384-well plate (Catalogue number 353962, BD Falcon, Oxford, UK) first. Test compounds (0.5 µL DMSO solution) were then added in quadruplicate using an Integra VIAFLO 96 (Integra, Zizers, Switzerland), and mixed well using a plate mixer. Subsequently 50 µL of the working spore suspension prepared above was added to all wells except non-spore control wells. For non-spore control wells, BSA MOPS-RPMI solution (50 µL/well) was added instead. The plate was covered with a plastic lid, and incubated (35° C. with ambient air) for 48 hr. The OD of each well at 530 nm was determined using a multi-scanner (Clariostar: BMG, Buckinghamshire, UK). The percentage inhibition for each well was calculated and the MIC50, MIC75 and MIC90 values were calculated from the concentration-response curve generated for each test compound.

[4] = tested on: Aspergillus fumigatus L98H (TR34/L98H); experiment: Broth microdilution assay (modified EUCAST); type: cell-based; conditions: Aspergillus fumigatus, read-out: MIC75 against Aspergillus fumigatus isolate L98H
Procedure: as §1

[5] = tested on: Aspergillus fumigatus NCPF2010; experiment: Broth microdilution assay (modified EUCAST); type: cell-based; conditions: Aspergillus fumigatus, NCPF2010, read-out: MIC75 against Aspergillus fumigatus isolate NCPF2010
Procedure: as §1

[6] = tested on: Aspergillus fumigatus NCPF7100; experiment: Broth microdilution assay (modified EUCAST); type: cell-based; conditions: Aspergillus fumigatus, NCPF7100, read-out: MIC75 against Aspergillus fumigatus isolate NCPF7100

SMILES	MIC50 [1] [µM]	CC50 at 1 day [2] [µM]	MIC [3] [µM]	MIC [4] [µM]	MIC [5] [µM]	MIC [6] [µM]
Cc1cc(N2CCN(c3ccc(C(=O)Nc4ccc(F)cn4)cc3)CC2)ccc1OC[C@@H]1CO[C@@](Cn2cncn2)(c2ccc(F)cc2F)C1 [Example 6, 4-(4-(4-(((3R,5R)-5-((1H-1,2,4-Triazol-1-yl)Methyl)-5-(2,4-Difluorophenyl)Tetra Hydrofuran-3-yl)Methoxy)-3-Methylphenyl)Piperazin-1-yl)-N-(5-Fluoropyridin-2-yl) Benzamide]	0.0239 (≈ 0.0163 µg/mL)	> 14.6	0.0212 (≈ 0.0145 µg/mL)	0.131 (≈ 0.0896 µg/mL)	0.0125 (≈ 0.00855 µg/mL)	0.0214 (≈ 0.0146 µg/mL)
Cc1cc(N2CCN(c3ccc(C(=O)Nc4ccc(S(=O)(=O)N(C)C)cc4)cc3)CC2)ccc1OC[C@@H]1CO[C@@](Cn2cncn2)(c2ccc(F)cc2F)C1 [Example 21]	0.00386 (≈ 0.00298 µg/mL)	> 13	0.0211 (≈ 0.0163 µg/mL)	0.0517 (≈ 0.0399 µg/mL)	0.0374 (≈ 0.0289 µg/mL)	0.0317 (≈ 0.0245 µg/mL)
O=C(Nc1ccc(F)cn1)c1ccc(N2CCN(c3ccc(OCC4CO[C@@](Cn5cncn5)(c5ccc(F)cc5F)C4)c(F)c3)CC2)cc1 (stereo in doubt) [Example 40, 4-(4-(4-(((3R, 5R)-5-((1H-1,2,4-triazol-1-yl)methyl)-5-(2,4-difluorophenyl)tetrahydrofuran-3-yl)methoxy)-3-fluorophenyl)piperazin-1-yl)-N-(5-fluoropyridin-2-yl)benzamide]	0.00687 (≈ 0.00472 µg/mL)	> 14.5	0.024 (≈ 0.0165 µg/mL)	0.0731 (≈ 0.0503 µg/mL)	0.0125 (≈ 0.0086 µg/mL)	0.0146 (≈ 0.01 µg/mL)
Cc1cc(N2CCN(c3ccc(C(=O)Nc4ccc(F)cc4)cc3)CC2)c(C)cc1OC[C@@H]1CO[C@@](Cn2cncn2)(c2ccc(F)cc2F)C1 [Example 5, 4-(4-(4-(((3R,5R)-5-((1H-1,2,4-Triazol-1-yl)Methyl)-5-(2,4-Difluorophenyl) Tetrahydrofuran-3-yl)Methoxy)-2,5-Dimethylphenyl)Piperazin-1-yl)-N-(4-Fluorophenyl) Benzamide]	0.123 (≈ 0.0857 µg/mL)	> 14.4	0.157 (≈ 0.109 µg/mL)	0.162 (≈ 0.113 µg/mL)	0.0133 (≈ 0.00927 µg/mL)	0.0966 (≈ 0.0673 µg/mL)
Cc1cc(N2CCN(c3ccc(C(=O)Nc4cc(C#N)ccn4)cc3)CC2)ccc1OC[C@@H]1CO[C@@](Cn2cncn2)(c2ccc(F)cc2F)C1 [Example 37, 4-(4-(4-(((3R,5R)-5-((1H-1,2,4-triazol-1-yl)methyl)-5-(2,4-difluorophenyl)tetrahydrofuran-3-yl)methoxy)-3-methylphenyl)piperazin-1-yl)-N-(4-cyanopyridin-2-yl)benzamide]	0.0188 (≈ 0.013 µg/mL)	> 14.5	0.0246 (≈ 0.017 µg/mL)	0.194 (≈ 0.134 µg/mL)	0.0284 (≈ 0.0196 µg/mL)	0.022 (≈ 0.0152 µg/mL)
Cc1cc(N2CCN(c3ccc(C(=O)Nc4ccc(F)cc4)cc3)CC2)cc(C)c1OC[C@@H]1CO[C@@](Cn2cncn2)(c2ccc(F)cc2F)C1 [Example 15, 4-(4-(4-(((3R,5R)-5-((1H-1,2,4-triazol-1-yl)methyl)-5-(2,4-difluorophenyl)tetrahydrofuran-3-yl)methoxy)-3,5-dimethylphenyl)piperazin-1-yl)-N-(4-fluorophenyl)benzamide]	0.00764 (≈ 0.00532 µg/mL)	> 14.4	0.0184 (≈ 0.0128 µg/mL)	> 1.44	0.029 (≈ 0.0202 µg/mL)	0.00845 (≈ 0.00589 µg/mL)
N#Cc1ccc(NC(=O)c2ccc(N3CCN(c4ccc(OC[C@@H]5CO[C@@](Cn6cncn6)(c6ccc(F)cc6F)C5)c(CO)c4)CC3)cc2)nc1 [Example 38, 4-(4-(4-(((3R, 5R)-5-((1H-1,2,4-triazol-1-yl)methyl)-5-(2,4-difluorophenyl)tetrahydrofuran-3-yl)methoxy)-3-hydroxymethylphenyl)piperazin-1-yl)-N-(5-cyanopyridin-2-yl)benzamide]	0.00486 (≈ 0.00343 µg/mL)	> 14.1	0.0319 (≈ 0.0225 µg/mL)	0.0654 (≈ 0.0462 µg/mL)	0.0124 (≈ 0.00876 µg/mL)	0.0336 (≈ 0.0237 µg/mL)
COc1cc(N2CCN(c3ccc(OC[C@@H]4CO[C@@](Cn5cncn5)(c5ccc(F)cc5F)C4)c(C)c3)CC2)ccc1C(=O)Nc1ccc(F)cc1 [Example 35, 4-(4-(4-(((3R,5R)-5-((1H-1,2,4-triazol-1-yl)methyl)-5-(2,4-difluorophenyl)tetrahydrofuran-3-yl)methoxy)-3-methylphenyl)piperazin-1-yl)-N-(4-fluorophenyl)-2-methoxybenzamide]	0.125 (≈ 0.0891 µg/mL)	> 14	0.109 (≈ 0.0777 µg/mL)	0.178 (≈ 0.127 µg/mL)	0.0634 (≈ 0.0452 µg/mL)	0.111 (≈ 0.0791 µg/mL)
O=C(Nc1ccc(F)cc1)c1ccc(N2CCN(c3ccc(OCC4CO[C@@](Cn5cncn5)(c5ccc(F)cc5F)C4)c(Cl)c3)CC2)cc1 (stereo in doubt) [Example 18, 4-(4-(4-(((3R,5R)-5-((1H-1,2,4-triazol-1-yl)methyl)-5-(2,4-difluorophenyl)tetrahydrofuran-3-yl)methoxy)-3-chlorophenyl)piperazin-1-yl)-N-(4-fluorophenyl)benzamide]	0.0866 (≈ 0.0609 µg/mL)	> 14.2	0.011 (≈ 0.00773 µg/mL)	0.0733 (≈ 0.0515 µg/mL)	0.0222 (≈ 0.0156 µg/mL)	0.0471 (≈ 0.0331 µg/mL)
Cc1cc(N2CCN(c3ccc(C(=O)Nc4ccc(F)cc4)c(C)c3)CC2)ccc1OC[C@@H]1CO[C@@](Cn2cncn2)(c2ccc(F)cc2F)C1 [Example 33, 4-(4-(4-(((3R, 5R)-5-((1H-1,2,4-triazol-1-yl)methyl)-5-(2,4-difluorophenyl)tetrahydrofuran-3-yl)methoxy)-3-methylphenyl)piperazin-1-yl)-N-(4-fluorophenyl)-2-methylbenzamide]	0.0435 (≈ 0.0303 µg/mL)	> 14.4	0.0489 (≈ 0.0341 µg/mL)	0.0679 (≈ 0.0473 µg/mL)	0.0135 (≈ 0.00941 µg/mL)	0.0236 (≈ 0.0164 µg/mL)
Cc1cc(N2CCN(c3ccc(C(=O)Nc4ccc(C#N)cc4)cc3)CC2)cc(C)c1OC[C@@H]1CO[C@@](Cn2cncn2)(c2ccc(F)cc2F)C1 [Example 11, 4-(4-(4-(((3R, 5R)-5-((1H-1,2,4-triazol-1-yl)methyl)-5-(2,4-difluorophenyl)tetrahydrofuran-3-yl)methoxy)-3,5-dimethylphenyl)piperazin-1-yl)-N-(4-cyanophenyl)benzamide]	0.284 (≈ 0.2 µg/mL)	> 14.2	0.049 (≈ 0.0345 µg/mL)	0.179 (≈ 0.126 µg/mL)	0.0236 (≈ 0.0166 µg/mL)	0.0529 (≈ 0.0372 µg/mL)
Cc1cc(N2CCN(c3ccc(C(=O)Nc4ccc(C#N)cn4)cc3)CC2)ccc1OC[C@@H]1CO[C@@](Cn2cncn2)(c2ccc(F)cc2F)C1 [Example 7]	0.0125 (≈ 0.00863 µg/mL)	> 14.5	0.0141 (≈ 0.00974 µg/mL)	0.0419 (≈ 0.0289 µg/mL)	0.00586 (≈ 0.00405 µg/mL)	0.00407 (≈ 0.00281 µg/mL)
